Assays:
human ERα [1] = target: T1, human ERα (Homo sapiens, UniProt P03372); experiment: IL-6 luciferase (IL6-luc) assay in ERα infected HAECT-1 cells; type: cell-based; conditions: for IC50: ERα infected HAECT-1 cells, IL-1β, Ad5-IL-6(1250 bp).Luc virus, 15-20 h; for IL6-luc (% E2): efficacy relative to E2, value in parentheses after the IC50
T1 construct: expressed in transfected cells; host or cells: HAECT-1 cells (immortalized human aortic endothelial cells) infected with Ad5-wt-hERα adenovirus
T1 sequence (P03372 1-595): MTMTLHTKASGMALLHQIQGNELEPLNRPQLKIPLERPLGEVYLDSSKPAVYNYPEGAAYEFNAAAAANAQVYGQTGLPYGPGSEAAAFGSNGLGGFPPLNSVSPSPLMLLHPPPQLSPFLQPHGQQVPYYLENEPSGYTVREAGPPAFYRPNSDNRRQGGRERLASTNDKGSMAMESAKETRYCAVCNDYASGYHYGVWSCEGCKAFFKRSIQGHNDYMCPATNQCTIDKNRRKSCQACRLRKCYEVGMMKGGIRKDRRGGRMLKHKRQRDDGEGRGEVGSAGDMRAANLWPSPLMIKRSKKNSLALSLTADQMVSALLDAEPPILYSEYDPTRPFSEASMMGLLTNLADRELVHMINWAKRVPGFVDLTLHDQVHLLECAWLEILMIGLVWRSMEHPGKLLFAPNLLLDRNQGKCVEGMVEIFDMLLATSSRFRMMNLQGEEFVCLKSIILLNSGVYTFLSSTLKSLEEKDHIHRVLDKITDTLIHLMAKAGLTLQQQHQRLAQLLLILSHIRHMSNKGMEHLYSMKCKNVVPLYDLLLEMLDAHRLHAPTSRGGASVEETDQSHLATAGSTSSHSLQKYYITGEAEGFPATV
Experimental: (§1) After four hours, cells were washed with EBM-BSA and incubated overnight in the same medium. Following overnight incubation, cells were washed with EBM-BSA and infected for 2 hours with 6 ml of a 1:10 dilution of Ad5-3x(NFκB).Luc virus (Adenovirus luciferase expression vector driven by 3 repeats of the MHC NFκb site 5′ to the thymidine kinase promoter) in EBM-BSA. After two hours, cells were washed and incubated at 34° C. for 1 hour. […] Control (no ER infection) cells were processed as above without Ad5-wt-hERα virus infection.
(§2) ERα infected HAECT-1 cells or control cells were thawed, diluted 42× in warm EBM-BSA, plated into 96-well plates at 0.1 ml/well and incubated for 4 h at 34° C. […] After 15-20 h, cells are lysed with 50 ul of Promega Cell Culture Lysis reagent for ˜5 min at room temp on shaker. After lysing, 15 ul of lysate is transferred to luminometer plates for luciferase determination. […] Creatine kinase was determined from the rate of increase in A340 following addition of 100 uL of CK assay reagent (Sigma, cat. No 47-10) to the remainder of the cell lysate.
(§3) For IC50 and EC50 calculations, mean IL-6, luciferase or CK values versus log10 of the compound concentration were fitted to a four parameter logistic equation. The IC50/EC50 value, ‘Hill slope’, upper and lower limits of the curve were iteratively estimated.

human ERα [2] = target: T1, human ERα; experiment: Creatine kinase (CK) assay in ERα infected HAECT-1 cells; type: cell-based; conditions: for EC50: creatine kinase in lysate of ERα infected HAECT-1 cells; for CK (% E2): efficacy relative to E2, value in parentheses after the EC50
Experimental: as §1, §2, §3

SMILES	IC50 (human ERα [1])	IL6-luc (% E2) (human ERα [1])	melting point	EC50 (human ERα [2])	CK (% E2) (human ERα [2])
CC[C@@H]1c2cc(F)ccc2-c2ccccc2N1C(=O)c1ccc(O)cc1 [Example 20, 4-{[(6R)-6-ethyl-8-fluorophenanthridin-5(6H)-yl]carbonyl}phenol]	6 nM	95%	105 to 106 °C	–	–
C[C@@H]1c2cc(F)ccc2-c2ccccc2N1C(=O)c1ccc(O)c(Br)c1 [Example 13, 2-bromo-4-{[(6R)-8-fluoro-6-methylphenanthridin-5(6H)-yl]carbonyl}phenol]	51 nM	102%	–	–	–
C[C@H]1c2ccccc2-c2ccc(Cl)cc2N1C(=O)c1ccc(O)cc1O [Example 32, 4-{[(6S)-3-chloro-6-methylphenanthridin-5(6H)-yl]carbonyl}benzene-1,3-diol]	789 nM	125%	–	–	–
C[C@H]1c2cc(F)ccc2-c2ccccc2N1C(=O)c1ccc(O)cc1F [Example 6, 3-fluoro-4-{[(6S)-8-fluoro-6-methylphenanthridin-5(6H)-yl]carbonyl}phenol]	403 nM	90%	–	–	–
C[C@@H]1c2cc(F)ccc2-c2ccccc2N1C(=O)c1cc(O)ccc1Br [Example 15, 4-bromo-3-{[(6R)-8-fluoro-6-methylphenanthridin-5(6H)-yl]carbonyl}phenol]	301 nM	76%	–	–	–
C[C@@H]1c2cc(F)ccc2-c2ccccc2N1C(=O)c1ccc(O)cc1F [Example 5, 3-fluoro-4-{[(6R)-8-fluoro-6-methylphenanthridin-5(6H)-yl]carbonyl}phenol]	9 nM	97%	–	–	–
COc1cc(C(=O)N2c3ccccc3-c3ccc(F)cc3[C@H]2C)ccc1O [Example 17, 4-{[(6R)-8-fluoro-6-methylphenanthridin-5(6H)-yl]carbonyl}-2-methoxyphenol]	364 nM	113%	–	–	–
C[C@@H]1c2cc(F)ccc2-c2ccc(F)cc2N1C(=O)c1ccc(O)cc1 (single isomer, unassigned) [Example 43]	1.5 nM	147%	138 to 140 °C	–	–
C[C@H]1c2cc(F)ccc2-c2ccc(F)cc2N1C(=O)c1ccc(O)cc1 (single isomer, unassigned) [Example 44]	130 nM	132%	135 to 138 °C	–	–
C[C@H]1c2ccccc2-c2ccc(Cl)cc2N1C(=O)c1ccc(O)cc1 [Example 29, 4-{[(6S)-3-chloro-6-methylphenanthridin-5(6H)-yl]carbonyl}phenol]	1000 nM	75%	273.7 to 276 °C	–	–
C[C@H]1c2cc(F)ccc2-c2ccccc2N1C(=O)c1cc(O)ccc1Br [Example 16, 4-bromo-3-{[(6S)-8-fluoro-6-methylphenanthridin-5(6H)-yl]carbonyl}phenol]	832 nM	91%	–	–	–
CCC1c2cc(F)ccc2-c2ccccc2N1C(=O)c1ccc(O)cc1F (racemic) [Example 23, 4-[(6-ethyl-8-fluorophenanthridin-5(6H)-yl)carbonyl]-3-fluorophenol]	1 nM	107%	109 to 111 °C	–	–
CC1c2ccccc2-c2ccc(Cl)cc2N1C(=O)c1ccc(O)cc1 (racemic) [Example 27, 4-[(3-chloro-6-methylphenanthridin-5(6H)-yl)carbonyl]phenol]	–	–	165 to 165.9 °C	–	–
C[C@H]1c2cc(F)ccc2-c2ccccc2N1C(=O)c1ccc(O)c(F)c1 [Example 10, 2-fluoro-4-{[(6S)-8-fluoro-6-methylphenanthridin-5(6H)-yl]carbonyl}phenol]	1470 nM	68%	–	–	–
C[C@@H]1c2ccccc2-c2ccc(Cl)cc2N1C(=O)c1ccc(O)cc1O [Example 31, 4-{[(6R)-3-chloro-6-methylphenanthridin-5(6H)-yl]carbonyl}benzene-1,3-diol]	3 nM	87%	–	–	–
C[C@@H]1c2cc(F)ccc2-c2ccccc2N1C(=O)c1cc(O)ccc1F [Example 7, 4-fluoro-3-{[(6R)-8-fluoro-6-methylphenanthridin-5(6H)-yl]carbonyl}phenol]	263 nM	70%	–	–	–
CC[C@H]1c2cc(F)ccc2-c2ccccc2N1C(=O)c1ccc(O)cc1 [Example 19, 4-{[(6S)-6-ethyl-8-fluorophenanthridin-5(6H)-yl]carbonyl}phenol]	85 nM	88%	103 to 104 °C	–	–
C[C@@H]1c2cc(F)ccc2-c2ccccc2N1C(=O)c1ccc(O)c(F)c1 [Example 9, 2-fluoro-4-{[(6R)-8-fluoro-6-methylphenanthridin-5(6H)-yl]carbonyl}phenol]	31 nM	81%	–	–	–

The next lines start with the values.

IC50 (human ERα [1])	IL6-luc (% E2) (human ERα [1])	melting point	EC50 (human ERα [2])	CK (% E2) (human ERα [2])	SMILES
–	–	134.5 to 135 °C	–	–	CC1c2ccccc2-c2ccc(F)cc2N1C(=O)c1ccc(O)cc1 (racemic) [Example 36, 4-[(3-fluoro-6-methylphenanthridin-5(6H)-yl)carbonyl]phenol]
–	–	236.6 to 237.8 °C	–	–	C[C@H]1c2ccccc2-c2ccc(F)cc2N1C(=O)c1ccc(O)cc1 (single isomer, unassigned) [Example 38]
–	–	176.2 to 177.9 °C	–	–	CC1c2ccccc2-c2ccc(Cl)cc2N1C(=O)c1cccc(O)c1 (racemic) [Example 24, 3-[(3-chloro-6-methylphenanthridin-5(6H)-yl)carbonyl]phenol]
47 nM	102%	162 °C	–	–	C[C@@H]1c2cc(F)ccc2-c2ccccc2N1C(=O)c1cccc(O)c1 [Example 4, 3-{[(6R)-8-fluoro-6-methylphenanthridin-5(6H)-yl]carbonyl}phenol]
414 nM	114%	–	–	–	C[C@H]1c2cc(F)ccc2-c2ccccc2N1C(=O)c1ccc(O)cc1 [Example 3, 4-{[(6S)-8-fluoro-6-methylphenanthridin-5(6H)-yl]carbonyl}phenol]
272 nM	88%	182 to 184 °C	–	–	C[C@H]1c2ccccc2-c2ccc(F)cc2N1C(=O)c1ccc(O)cc1O (single isomer, unassigned) [Example 41]
38 nM	53%	–	–	–	C[C@H]1c2cc(F)ccc2-c2ccccc2N1C(=O)c1cccc(O)c1 [Example 2, 3-{[(6S)-8-fluoro-6-methylphenanthridin-5(6H)-yl]carbonyl}phenol]
5 nM	100%	–	–	–	C[C@@H]1c2cc(F)ccc2-c2ccccc2N1C(=O)c1ccc(O)cc1 [Example 1, 4-{[(6R)-8-fluoro-6-methylphenanthridin-5(6H)-yl]carbonyl}phenol]
–	–	163.9 to 165 °C	–	–	CC1c2ccccc2-c2ccc(F)cc2N1C(=O)c1cccc(O)c1 (racemic) [Example 33, 3-[(3-fluoro-6-methylphenanthridin-5(6H)-yl)carbonyl]phenol]
377 nM	49%	–	–	–	C[C@H]1c2ccccc2-c2ccc(Cl)cc2N1C(=O)c1cccc(O)c1 [Example 26, 3-{[(6S)-3-chloro-6-methylphenanthridin-5(6H)-yl]carbonyl}phenol]
9 nM	103%	–	141 nM	26%	C[C@@H]1c2ccccc2-c2ccc(Cl)cc2N1C(=O)c1cccc(O)c1 [Example 25, 3-{[(6R)-3-chloro-6-methylphenanthridin-5(6H)-yl]carbonyl}phenol]
11 nM	188%	–	–	–	C[C@@H]1c2ccccc2-c2ccc(F)cc2N1C(=O)c1cccc(O)c1 (single isomer, unassigned) [Example 34]
271 nM	107%	–	307 nM	−29%	C[C@@H]1c2cc(F)ccc2-c2ccccc2N1C(=O)c1ccc(Cl)c(O)c1 [Example 11, 2-chloro-5-{[(6R)-8-fluoro-6-methylphenanthridin-5(6H)-yl]carbonyl}phenol]

Source: patent publication US7585871B2, “Phenanthridine carbonyl phenols” (Wyeth, priority 2004, dated 2009)
